Legend:
Type in all cases: biochemical
[1] = biological target: T1, human JAK1 (a.a. 837-1142) catalytic domain (Homo sapiens, UniProt P23458); assay: In vitro JAK kinase assay (HTRF, phosphorylation of a biotinylated peptide), JAK1; conditions: 1 mM ATP
T1 construct: human JAK1 (a.a. 837-1142) and JAK2 (a.a. 828-1132); His tag (N); made in house; host or cells: insect cells (baculovirus)
Summary of the method: (§1)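 His-tagged JAK1/JAK2 catalytic domains from baculovirus-infected insect cells phosphorylate 500 nM biotinylated peptide at 1 mM ATP in 50 mM Tris pH 7.8, 100 mM NaCl, 5 mM DTT, 0.01% BSA, 1 h at room temperature. EDTA-stopped; SA-APC/Eu-Py20 HTRF read after 40 min; IC50 determined.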

[2] = test system: human JAK1 (a.a. 837-1142) catalytic domain; assay: as above; conditions: ratio of JAK2 IC50 to JAK1 IC50, 1 mM ATP
Summary of the method: as §1

[3] = biological target: T2, human JAK2 (a.a. 828-1132) catalytic domain (Homo sapiens, UniProt O60674); assay: In vitro JAK kinase assay (HTRF, phosphorylation of a biotinylated peptide), JAK2; conditions: 1 mM ATP
T2 construct: human JAK1 (a.a. 837-1142) and JAK2 (a.a. 828-1132); His tag (N); made in house; host or cells: insect cells (baculovirus)
Summary of the method: as §1

T2 sequence (O60674 828-1132): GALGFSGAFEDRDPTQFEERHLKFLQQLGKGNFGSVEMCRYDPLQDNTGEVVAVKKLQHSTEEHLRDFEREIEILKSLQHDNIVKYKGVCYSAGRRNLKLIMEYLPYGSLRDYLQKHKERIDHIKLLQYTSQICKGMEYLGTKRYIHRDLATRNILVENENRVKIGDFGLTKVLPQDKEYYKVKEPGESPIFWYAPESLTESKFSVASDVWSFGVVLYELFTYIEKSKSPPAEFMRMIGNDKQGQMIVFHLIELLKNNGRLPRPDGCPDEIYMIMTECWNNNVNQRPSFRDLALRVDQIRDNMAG
T1 sequence (P23458 849-1154): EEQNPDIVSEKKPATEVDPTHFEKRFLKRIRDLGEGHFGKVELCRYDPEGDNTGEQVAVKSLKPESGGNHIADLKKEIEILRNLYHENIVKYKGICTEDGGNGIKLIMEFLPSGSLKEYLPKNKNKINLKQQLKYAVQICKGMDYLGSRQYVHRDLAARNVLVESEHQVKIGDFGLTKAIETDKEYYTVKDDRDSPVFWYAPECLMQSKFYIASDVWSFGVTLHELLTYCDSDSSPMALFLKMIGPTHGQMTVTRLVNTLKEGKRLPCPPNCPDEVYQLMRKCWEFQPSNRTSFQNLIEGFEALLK

Row | IC50 [1] | JAK2/JAK1 [2] | IC50 [3] | Compound
1 | < 20 nM | >10 | 20 to 150 nM | CCNCc1cc(N(C)C2CCN([C@H]3C[C@](CC#N)(n4cc(-c5ncnc6[nH]ccc56)cn4)C3)CC2)nc(C(F)(F)F)c1 [Example 48, {trans-3-{4-[[4-[(ethylamino)methyl]-6-(trifluoromethyl)pyridin-2-yl](methyl)amino]piperidin-1-yl}-1-[4-(7H-pyrrolo[2,3-d]pyrimidin-4-yl)-1H-pyrazol-1-yl]cyclobutyl}acetonitrile]
2 | < 20 nM | >10 | 20 to 150 nM | N#CC[C@]1(n2cc(-c3ncnc4[nH]ccc34)cn2)C[C@H](N2CCC(Oc3cc(C4(O)COC4)cc(C(F)(F)F)n3)CC2)C1 [Example 49, {trans-3-(4-{[4-(3-hydroxyoxetan-3-yl)-6-(trifluoromethyl)pyridin-2-yl]oxy}piperidin-1-yl)-1-[4-(7H-pyrrolo[2,3-d]pyrimidin-4-yl)-1H-pyrazol-1-yl]cyclobutyl}acetonitrile]
3 | < 20 nM | >10 | 20 to 150 nM | N#CC[C@]1(n2cc(-c3ncnc4[nH]ccc34)cn2)C[C@H](N2CCC(Oc3cc(C4(N)COC4)cc(C(F)(F)F)n3)CC2)C1 [Example 50, {trans-3-(4-{[4-(3-aminooxetan-3-yl)-6-(trifluoromethyl)pyridin-2-yl]oxy}piperidin-1-yl)-1-[4-(7H-pyrrolo[2,3-d]pyrimidin-4-yl)-1H-pyrazol-1-yl]cyclobutyl}acetonitrile]

Row | Compound | IC50 [1] | JAK2/JAK1 [2] | IC50 [3]
4 | {cis-3-(4-{[4-(2-hydroxyethyl)-6-(trifluoromethyl)pyridin-2-yl]amino}piperidin-1-yl)-1-[4-(7H-pyrrolo[2,3-d]pyrimidin-4-yl)-1H-pyrazol-1-yl]cyclobutyl}acetonitrile and {trans-3-(4-{[4-(2-hydroxyethyl)-6-(trifluoromethyl)pyridin-2-yl]amino}piperidin-1-yl)-1-[4-(7H-pyrrolo[2,3-d]pyrimidin-4-yl)-1H-pyrazol-1-yl]cyclobutyl}acetonitrile [Example 38] | < 20 nM | >10 | 20 to 150 nM
